Experimental data reported in patent publication US20230321278A1, “AAV VECTOR DELIVERY SYSTEMS” (President and Fellows of Harvard College, priority 2020, published 2023).
Entries after “also recorded” stand apart in the source; their conditions may differ.

Columns and labels:
sympathetic nerve = assay: Sympathetic nerve ablation by intradermal injection of 6-OHDA; format: in vivo, mice
Description: The sympathetic nervous system is constantly active at a basal level to maintain body physiology. To explore if basal sympathetic nerve activity affects the other two cell types in this nerve-APM-HFSC tri-lineage unit, the sympathetic nerve in telogen skin was ablated through intradermal injection of 6-hydroxydopamine (6-OHDA, a selective neurotoxin for sympathetic nerves) (Kostrzewa and Jacobowitz, 1974), when HFSCs are quiescent. […] By P30, hair follicles reached full anagen throughout the control back skin, whereas hair follicles in the sympathectomized skin remained mostly in telogen (FIG. 1C). […]
Chemical ablation: 6-Hydroxydopamine hydrobromide (6-OHDA, Sigma 162957) solution was prepared freshly by dissolving 6-OHDA in 0.1% ascorbic acid (in 0.9% sterile NaCl) for intradermal injection. […] Skin was analyzed one week after ablation.
(§1) H&E stained sections were used for analysis. For quantification, anagen II and anagen III were considered as early anagen, anagen IV was mid anagen, and anagen V and anagen VI were full anagen. Hair cycle stages were determined using previously described criteria (Muller-Rover et al., 2001). Ten to twenty hair follicles were individually assessed and staged in each animal, and at least 4 different animals were used per condition. […] The percent of dorsal skin in anagen was quantified using Fiji. […]

HFSCs = assay: Adrenergic agonist topical application, anagen entry; format: in vivo, mice; settings: 10 mg/kg body weight once a day for 10 days, extended 2nd telogen
Description: Next, the impact of elevated sympathetic tone on HFSC activation was explored. Sympathetic nerve terminals secrete the neurotransmitter norepinephrine, which binds to adrenergic receptors on target cells. To elevate the sympathetic tone, isoproterenol, a pan-adrenergic receptor agonist, was topically applied at the extended 2nd telogen. […] Loss of sympathetic nerve innervations makes HFSCs more dormant, whereas elevated sympathetic tone promotes HFSC activation.
as §1, with “The effects of cold exposure and adrenergic agonist treatment (isoproterenol and procaterol) on anagen entry were quantified by monitoring the change of hair regrowth as previously described (Fan et al., 2018; Sheen et al., 2015). The” for “The”

human HFSCs = assay: Colony formation assay (CFA); format: cell-based; settings: 0.1 μM procaterol
Experimental: Human hair follicles were isolated from normal scalp tissues. To isolate hair follicle stem cells (HFSCs), hair follicles were dissected, and subcutaneous fat and connective tissues were carefully removed with a scalpel. The lower hair bulb and upper epithelial layer were removed as previously described (Oshima et al., 2001; Rochat et al., 1994). For HFSC isolation, hair follicles were incubated in 1.25 U/mL dispase (Gibco) and 0.5 mg/mL collagenase I (Sigma-Aldrich) solution at 37° C. for 30 minutes, following which the mesenchymal sheath was carefully removed with forceps. To obtain a single cell HFSC suspension, tissue was digested with 0.05% trypsin/EDTA solution (Gibco) for 1 h at 37° C., and cells were filtered through a sterile 40[…] cell strainer (BD Biosciences). Single cell suspensions were then centrifuged at 1300 rpm for 10 minutes and plated on mitomycin C (Cayman) treated J2 feeders at a cell density of 5000 cells/well in a 12-well culture plate (Falcon) in E media supplemented with EGF and additives as described in (Mou et al., 2016; Nowak and Fuchs, 2009). After 48 hours, 0.1 μM procaterol (Sigma) was added (freshly prepared). Medium was changed every 2 days. On day 10, plates were fixed with 4% PFA and stained with Rhodamine B (Sigma). […] CFA quantification was done using Fiji.

Structure (SMILES) | ablation of the sympathetic nerve in skin (sympathetic nerve; intradermal injection, telogen skin) | HFSC activation and anagen entry (sympathetic nerve; sympathectomy by intradermal 6-OHDA) | anagen entry (back skin hair regrowth) (HFSCs) | growth of cultured human HFSCs (area covered by colonies) (human HFSCs)
NCCc1cc(O)c(O)cc1O [6-OHDA, 6-hydroxydopamine] | ablated the sympathetic nerve efficiently | substantial delay in HFSC activation and anagen entry | – | –
CC(C)NCC(O)c1ccc(O)c(O)c1 (centres unmarked) [isoproterenol] | – | – | entered anagen earlier; also recorded: precocious anagen entry | –
CCC(NC(C)C)C(O)c1ccc(O)c2[nH]c(=O)ccc12 (centres unmarked) [procaterol] | – | – | accelerated anagen entry; also recorded: premature anagen entry | promoted their growth
